Measurements from publication PMC9954641, “Molecular Insight into Drug Resistance Mechanism Conferred by Aberrant PIK3CD Splice Variant in African American Prostate Cancer” (Cancers, 2023).
Like-named read-outs stand apart in the source and are kept apart here.

Key:
Format in all cases: biochemical
[1] = biological target: T1, PI3Kδ-L (full-length PI3Kδ) (Homo sapiens, UniProt O00329); experiment: cell-free PI3 kinase activity assay at […]; also ATP-competitive binding assay ([…] less ATP bound)
T1 construct: gene PIK3CD; full-length PI3Kδ-L, V5-His tagged, Ni-NTA purified from transfected LNCaP and MDA PCa 2b cells
T1 sequence (O00329 1-1044): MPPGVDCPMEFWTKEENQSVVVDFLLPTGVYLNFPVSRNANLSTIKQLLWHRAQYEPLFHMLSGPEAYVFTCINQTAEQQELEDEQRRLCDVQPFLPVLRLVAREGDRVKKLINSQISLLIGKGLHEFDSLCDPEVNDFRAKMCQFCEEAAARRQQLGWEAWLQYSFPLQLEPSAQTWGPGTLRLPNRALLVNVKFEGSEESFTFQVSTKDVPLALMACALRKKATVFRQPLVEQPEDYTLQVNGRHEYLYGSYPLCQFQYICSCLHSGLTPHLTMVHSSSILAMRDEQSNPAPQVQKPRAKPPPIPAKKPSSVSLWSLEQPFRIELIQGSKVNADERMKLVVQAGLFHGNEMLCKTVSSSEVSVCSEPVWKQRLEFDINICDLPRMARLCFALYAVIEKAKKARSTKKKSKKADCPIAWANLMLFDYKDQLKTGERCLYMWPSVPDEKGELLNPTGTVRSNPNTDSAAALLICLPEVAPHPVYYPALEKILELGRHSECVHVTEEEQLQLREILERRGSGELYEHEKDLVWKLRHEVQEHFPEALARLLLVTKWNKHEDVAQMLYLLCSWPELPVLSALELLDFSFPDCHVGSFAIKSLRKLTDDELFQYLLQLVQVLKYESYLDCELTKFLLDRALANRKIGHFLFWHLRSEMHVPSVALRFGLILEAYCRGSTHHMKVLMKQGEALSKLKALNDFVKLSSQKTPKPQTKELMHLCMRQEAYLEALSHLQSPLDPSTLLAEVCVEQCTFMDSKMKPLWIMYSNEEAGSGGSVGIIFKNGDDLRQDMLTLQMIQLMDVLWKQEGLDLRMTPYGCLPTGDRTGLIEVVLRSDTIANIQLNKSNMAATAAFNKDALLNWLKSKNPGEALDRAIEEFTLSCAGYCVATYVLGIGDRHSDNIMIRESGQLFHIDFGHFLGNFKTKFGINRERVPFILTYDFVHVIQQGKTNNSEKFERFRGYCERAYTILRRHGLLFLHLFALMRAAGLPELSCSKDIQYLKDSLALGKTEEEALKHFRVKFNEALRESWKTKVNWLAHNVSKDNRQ

[2] = biological target: T1, PI3Kδ-L (full-length PI3Kδ); experiment: as above; remark: listed apart in the source
[3] = biological target: T1, PI3Kδ-L (full-length PI3Kδ); experiment: cell-free PI3 kinase activity assay at […] (no effect at […] on MDA PCa 2b-derived protein); also ATP-competitive binding assay ([…] less ATP bound)

Cn1c(=O)n(-c2ccc(C(C)(C)C#N)cc2)c2c3cc(-c4cnc5ccccc5c4)ccc3ncc21 [Dactolisib]
cell-free PI3 kinase activity assay at 1 and 10 μM; also ATP-competitive binding [1]: Idelalisib, Seletalisib, Wortmannin, and Dactolisib effectively suppressed the PI3Kδ-L activities

[O-][n+]1cccc(-c2nc3c(Cl)cccc3cc2[C@@H](Nc2ncnc3cccnc23)C(F)(F)F)c1 [Seletalisib]
cell-free PI3 kinase activity assay at 1 and 10 μM; also ATP-competitive binding [2]: Idelalisib, Seletalisib, Wortmannin, and Dactolisib effectively suppressed the PI3Kδ-L activities

COC[C@H]1OC(=O)c2coc3c2[C@@]1(C)C1=C(C3=O)[C@@H]2CCC(=O)[C@@]2(C)C[C@H]1OC(C)=O [Wortmannin]
cell-free PI3 kinase activity assay at 1 and 10 μM (no effect at 1 μM on MDA PCa) [3]: Idelalisib, Seletalisib, Wortmannin, and Dactolisib effectively suppressed the PI3Kδ-L activities
